Entries after “also recorded” stand apart in the source; their conditions may differ.
Tested on: KIA cells
Assay: Subcutaneous KIA cell allograft in nude mice (primary tumor, lung metastasis, collagen)
Format: in vivo
Conditions: 1 mg/kg or 3 mg/kg intraperitoneal every other day for 3 weeks
Text: Generation of Hif1α^fl/fl mice (Ryan et al., 2000, Cancer Res 60(15):4010-5) and LSL-Kras^G12D/+Trp53^fl/fl mice has been previously described (Kirsch et al., 2007, Nat Med 13(8):992-7). These mice were crossed to create the LSL-Kras^G12D/+Trp53^fl/flHif1a^fl/fl animals. Soft tissue sarcomas were generated by intramuscular injection of a calcium phosphate precipitate of Ad-Cre (Gene Transfer Vector Core, University of Iowa). For transplant tumors 1×106 KIA (derived from LSL-Kras^G12D/+[…] tumors) were injected subcutaneously into the flanks of nu/nu mice (Charles River Laboratories). In each experiment 10 mice per experimental group were used with each mouse bearing two subcutaneous tumors. Tumors developed after 3-5 days, were monitored every other day, and animals were euthanized after 20-30 days. For in vivo lung metastasis analysis lung tissues were removed, and sections were stained with hematoxylin and eosin. Images were acquired using a Nikon SMZ800 stereoscope with a Nikon 1200F digital camera and Nikon Act-1 software. The ratio of total metastatic sarcoma foci to total lung area (% tumor burden) was determined using ImagePro 6.3 software (Media Cybernetics Inc.). Additionally, the percent of animals in the entire cohort with metastatic foci was evaluated along with total number of metastatic foci per experiment and the averae number of sarcoma lung foci per lung in each experiment. For Minoxidil injections, allografts and drug treatments were started simultaneously. Mice bearing subcutaneous KIA tumors on each flank were intraperitoneal injected with PBS, 1 mg/kg Minoxidil, or 3 mg/kg Minoxidil every other day unless the animals were euthanized, the tumors and lungs removed.
Immunohistochemistry of tissue sections with antibodies to HIF1α (Abcam) and Lectin (Vector Labs) was performed using enzymatic Avidin-Biotin Complex (ABC)-diaminobenzidine (DAB) staining (Vector Labs). Nuclei were counterstained with hematoxylin. […] Collagen was quantified using Image-Pro software. […]

With `Nc1cc(N2CCCCC2)nc(N)[n+]1[O-]` [Minoxidil] the overall animal health/weight was “no effect; also recorded: unaffected”, the primary tumor volume was “no effect” and the “tumor weight (mass)” value was “no effect”.
